According to patent US9409905B2, “Antibacterial compounds and methods for use” (PTC THERAPEUTICS, INC., priority 2011, dated 2016):
In brackets after ≈: the same amount, converted by molar mass.

Experiments:
E. coli LZ3111 = assay: Antibacterial activity, MIC, quinolone resistant strain (Table 2); assay type: cell-based; conditions: Escherichia coli, LZ3111, read-out: MIC LZ3111
Method in brief: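 Strain carries mutations conferring high-level quinolone resistance; tested by microbroth dilution, MIC recorded in μg/mL as lowest concentration preventing visible growth.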

E. coli 25922 = assay: Antibacterial activity, microbroth dilution MIC (Table 1); assay type: cell-based, Escherichia coli; conditions: Escherichia coli; microbroth dilution; control Gram-negative E. coli 25922 strain; read-out: MIC, 25922
Method in brief: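 Read-out: visual absence of growth. The lowest concentration meeting this gives the MIC, expressed in μg/mL, with microbroth dilution as the method.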

K. pneumoniae MXX1232 = assay: Antibacterial activity, MIC, resistant strain (Table 4); assay type: cell-based; conditions: Klebsiella pneumoniae, MXX1232; resistant K. pneumoniae MMX1232, multi-drug resistant clinical isolate; read-out: MIC, MMX1232
Method in brief: (§1)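 MIC in μg/mL by microbroth dilution, scored as the lowest level that suppresses visible growth.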

A. baumannii MXX2240 = assay: as above; assay type: cell-based; conditions: Acinetobacter baumannii, MXX2240; resistant A. baumannii MMX2240, multi-drug resistant clinical isolate; read-out: MIC, MMX2240
Method in brief: as §1

[1] = test system: Acinetobacter baumannii (A. baumannii) BAA747; assay: Antibacterial activity, MIC (Table 4); assay type: cell-based; conditions: A. baumannii BAA747, read-out: MIC, BAA747
Method in brief: as §1

[2] = test system: Klebsiella pneumoniae (K. pneumoniae) 35657; assay: Antibacterial activity, MIC (Table 4); assay type: cell-based; conditions: K. pneumoniae 35657, read-out: MIC, 35657
Method in brief: as §1

[3] = test system: Pseudomonas aeruginosa (P. aeruginosa) 27853; assay: Antibacterial activity, MIC (Table 5); assay type: cell-based; conditions: P. aeruginosa 27853, read-out: MIC, 27853
Method in brief: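 Compounds are serially diluted in broth and inoculated with the organism. Growth is then inspected macroscopically, and the lowest concentration showing none is taken as the MIC (μg/mL).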

[4] = test system: Escherichia coli (E. coli) BAS849; assay: Antibacterial activity, microbroth dilution MIC (Table 1); assay type: cell-based; conditions: microbroth dilution, super sensitive Gram-negative E. coli BAS849, read-out: MIC, BAS849
Method in brief: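 Potency is reported as minimum inhibitory concentration in μg/mL, determined by broth microdilution as the lowest level of compound that stops growth visible to the eye.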

[5] = test system: Staphylococcus aureus (S. aureus) 29213; assay: as above; assay type: cell-based; conditions: microbroth dilution, Gram-positive S. aureus 29213, read-out: MIC, 29213
Method in brief: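 MIC (μg/mL) is taken as the lowest concentration with no macroscopically visible growth. Strains tested by microbroth dilution: Gram-positive S. aureus 29213, control Gram-negative E. coli 25922, and super-sensitive E. coli BAS849.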

Structure (SMILES)	MIC (E. coli LZ3111)	MIC (E. coli 25922)	MIC (K. pneumoniae MXX1232)	MIC (A. baumannii MXX2240)	MIC [1]	MIC [2]	MIC [3]	MIC [4]	MIC [5]
CCc1c(-c2cc3cc(F)c(C)cc3[nH]2)[nH]c(=O)c(C(=O)O)c1O [Cpd 385, 5-ethyl-6-(5-fluoro-6-methyl-1H-indol-2-yl)-4-hydroxy-2-oxo-1,2-dihydropyridine-3-carboxylic acid]	12.5 to 150 µg/mL (≈ 37.8 to 454 µM)	12.5 to 150 µg/mL (≈ 37.8 to 454 µM)	12.5 to 150 µg/mL (≈ 37.8 to 454 µM)	12.5 to 150 µg/mL (≈ 37.8 to 454 µM)	12.5 to 150 µg/mL (≈ 37.8 to 454 µM)	12.5 to 150 µg/mL (≈ 37.8 to 454 µM)	12.5 to 150 µg/mL (≈ 37.8 to 454 µM)	< 1 µg/mL	3.5 to 12.5 µg/mL (≈ 10.6 to 37.8 µM)
CCc1ccc2[nH]c(-c3[nH]c(=O)c(C(=O)O)c(O)c3C)cc2c1 [Cpd 386, 6-(5-ethyl-1H-indol-2-yl)-4-hydroxy-5-methyl-2-oxo-1,2-dihydropyridine-3-carboxylic acid]	12.5 to 150 µg/mL (≈ 40 to 480 µM)	12.5 to 150 µg/mL (≈ 40 to 480 µM)	12.5 to 150 µg/mL (≈ 40 to 480 µM)	12.5 to 150 µg/mL (≈ 40 to 480 µM)	12.5 to 150 µg/mL (≈ 40 to 480 µM)	12.5 to 150 µg/mL (≈ 40 to 480 µM)	12.5 to 150 µg/mL (≈ 40 to 480 µM)	3.5 to 12.5 µg/mL (≈ 11.2 to 40 µM)	12.5 to 150 µg/mL (≈ 40 to 480 µM)
CCc1ccc2cc(-c3[nH]c(=O)c(C(=O)O)c(O)c3C)[nH]c2c1 [Cpd 387, 6-(6-ethyl-1H-indol-2-yl)-4-hydroxy-5-methyl-2-oxo-1,2-dihydropyridine-3-carboxylic acid]	12.5 to 150 µg/mL (≈ 40 to 480 µM)	12.5 to 150 µg/mL (≈ 40 to 480 µM)	12.5 to 150 µg/mL (≈ 40 to 480 µM)	12.5 to 150 µg/mL (≈ 40 to 480 µM)	12.5 to 150 µg/mL (≈ 40 to 480 µM)	12.5 to 150 µg/mL (≈ 40 to 480 µM)	12.5 to 150 µg/mL (≈ 40 to 480 µM)	1 to 3.5 µg/mL (≈ 3.2 to 11.2 µM)	12.5 to 150 µg/mL (≈ 40 to 480 µM)
Cc1cc2[nH]c(-c3[nH]c(=O)c(C(=O)O)c(O)c3C)cc2cc1F [Cpd 388, 6-(5-fluoro-6-methyl-1H-indol-2-yl)-4-hydroxy-5-methyl-2-oxo-1,2-dihydropyridine-3-carboxylic acid]	12.5 to 150 µg/mL (≈ 39.5 to 474 µM)	12.5 to 150 µg/mL (≈ 39.5 to 474 µM)	12.5 to 150 µg/mL (≈ 39.5 to 474 µM)	12.5 to 150 µg/mL (≈ 39.5 to 474 µM)	12.5 to 150 µg/mL (≈ 39.5 to 474 µM)	12.5 to 150 µg/mL (≈ 39.5 to 474 µM)	12.5 to 150 µg/mL (≈ 39.5 to 474 µM)	3.5 to 12.5 µg/mL (≈ 11.1 to 39.5 µM)	12.5 to 150 µg/mL (≈ 39.5 to 474 µM)
CCc1c(-c2ccc3cn(C)nc3c2)[nH]c(=O)c(C(=O)O)c1O [Cpd 389, 5-ethyl-4-hydroxy-6-(2-methyl-2H-indazol-6-yl)-2-oxo-1,2-dihydropyridine-3-carboxylic acid]	3.5 to 12.5 µg/mL (≈ 11.2 to 39.9 µM)	12.5 to 150 µg/mL (≈ 39.9 to 479 µM)	12.5 to 150 µg/mL (≈ 39.9 to 479 µM)	3.5 to 12.5 µg/mL (≈ 11.2 to 39.9 µM)	12.5 to 150 µg/mL (≈ 39.9 to 479 µM)	12.5 to 150 µg/mL (≈ 39.9 to 479 µM)	12.5 to 150 µg/mL (≈ 39.9 to 479 µM)	3.5 to 12.5 µg/mL (≈ 11.2 to 39.9 µM)	12.5 to 150 µg/mL (≈ 39.9 to 479 µM)
CCc1c(-c2ccc3cnn(C)c3c2)[nH]c(=O)c(C(=O)O)c1O [Cpd 390, 5-ethyl-4-hydroxy-6-(1-methyl-1H-indazol-6-yl)-2-oxo-1,2-dihydropyridine-3-carboxylic acid]	3.5 to 12.5 µg/mL (≈ 11.2 to 39.9 µM)	12.5 to 150 µg/mL (≈ 39.9 to 479 µM)	12.5 to 150 µg/mL (≈ 39.9 to 479 µM)	3.5 to 12.5 µg/mL (≈ 11.2 to 39.9 µM)	12.5 to 150 µg/mL (≈ 39.9 to 479 µM)	12.5 to 150 µg/mL (≈ 39.9 to 479 µM)	12.5 to 150 µg/mL (≈ 39.9 to 479 µM)	12.5 to 150 µg/mL (≈ 39.9 to 479 µM)	12.5 to 150 µg/mL (≈ 39.9 to 479 µM)
CCc1c(-c2ccc3cn[nH]c3c2)[nH]c(=O)c(C(=O)O)c1O [Cpd 391, 5-ethyl-4-hydroxy-6-(1H-indazol-6-yl)-2-oxo-1,2-dihydropyridine-3-carboxylic acid]	3.5 to 12.5 µg/mL (≈ 11.7 to 41.8 µM)	12.5 to 150 µg/mL (≈ 41.8 to 501 µM)	12.5 to 150 µg/mL (≈ 41.8 to 501 µM)	12.5 to 150 µg/mL (≈ 41.8 to 501 µM)	12.5 to 150 µg/mL (≈ 41.8 to 501 µM)	3.5 to 12.5 µg/mL (≈ 11.7 to 41.8 µM)	12.5 to 150 µg/mL (≈ 41.8 to 501 µM)	3.5 to 12.5 µg/mL (≈ 11.7 to 41.8 µM)	12.5 to 150 µg/mL (≈ 41.8 to 501 µM)
CCc1c(-c2ccc3[nH]ncc3c2)[nH]c(=O)c(C(=O)O)c1O [Cpd 392, 5-ethyl-4-hydroxy-6-(1H-indazol-5-yl)-2-oxo-1,2-dihydropyridine-3-carboxylic acid]	3.5 to 12.5 µg/mL (≈ 11.7 to 41.8 µM)	12.5 to 150 µg/mL (≈ 41.8 to 501 µM)	12.5 to 150 µg/mL (≈ 41.8 to 501 µM)	12.5 to 150 µg/mL (≈ 41.8 to 501 µM)	12.5 to 150 µg/mL (≈ 41.8 to 501 µM)	3.5 to 12.5 µg/mL (≈ 11.7 to 41.8 µM)	12.5 to 150 µg/mL (≈ 41.8 to 501 µM)	3.5 to 12.5 µg/mL (≈ 11.7 to 41.8 µM)	12.5 to 150 µg/mL (≈ 41.8 to 501 µM)
